{
  "source": "patent US10952987B2",
  "about": "(BIOPROJET, priority 2012, dated 2021)",
  "key": {"[1]": {"settings": "in animals as well as in humans; cited from earlier work"}, "[2]": {"settings": "adrenalin alone 30 μg/kg intramuscular, anesthetized rabbits"}, "[3]": {"settings": "adrenalin alone 30 μg/kg intramuscular, anesthetized rabbits", "remark": "listed apart in the source"}},
  "data": [
    {"smiles": "CNC[C@H](O)c1ccc(O)c(O)c1", "note": "[adrenalin]", "values": [
      {"measurement": "delay of the bulk of the increase in plasma levels of adrenalin after injection", "setting": "[1]", "result": "about 20 minutes"},
      {"measurement": "hypertensive episodes", "setting": "[2]", "result": "two hypertensive episodes occurred at the times of the plasma adrenalin peaks"},
      {"measurement": "AUC of second plasma adrenalin peak relative to the first one", "setting": "[3]", "result": "about 20 times"},
      {"measurement": "time of first narrow peak in plasma adrenalin level", "setting": "[3]", "result": "a few minutes following the injection"},
      {"measurement": "time of second, much larger peak in plasma adrenalin level", "setting": "[3]; later than first peak", "result": 20, "unit": "min"}
    ]}
  ]
}
